In patent US8618095B2 (Rigel Pharmaceuticals, Inc., priority 2010, dated 2013):
Where a name gives a salt, the structure may show the parent alone.

system: Human mast cells (CHMC); experiment: LD Tryptase release assay in CHMC (mast cell activation induced by FcγR cross-linking); format: cell-based; conditions: Homo sapiens, Mast cell, anti-IgG stimulation, activity of tryptase released upon degranulation
Protocol: Compounds were assayed for inhibition of mast cell activation induced by FcγR cross-linking by measuring the activity of tryptase released upon degranulation as follows:
Human mast cells were cultured and differentiated from […] progenitor cell as described in U.S. Patent Publication No. 2005-234049, incorporated herein by reference. For example, 65 μL of various concentrations of the compound to be assayed were prepared in MT (137 mM NaCl, 2.7 mM KCl, 1.8 mM CaCl2, 1.0 mM MgCl2, 5.6 mM Glucose, 20 mM Hepes (pH 7.4), 0.1% Bovine Serum Albumin, (Sigma A4503)) containing 2% MeOH and 1% DMSO, or control buffer were added to duplicate 96-well V-bottom plates. Pelleted and re-suspended (in warm MT) CHMC cells (65 μL) were added to each 96-well plate, mixed and incubated for 1 hour at 37° C. 25 μl of 6× anti-IgG Rabbit anti-human IgG, Affinity purified (Bethyl Laboratories Cat No. A80-105A3) final concentration 1 μg/mL, was added to the test wells. MT (25 μL) was added to control wells. After a 60-minute incubation at 37° C., cells and cell debris were pelleted by centrifugation at 1000 rpm for 10 min and tryptase and leukotriene C4 levels were measured.
To measure tryptase levels, 25 μL of supernatant from each well was transferred to a fresh 96-well black bottom plate, to which 100 μL of fresh tryptase substrate solution [(Z-Ala-Lys-Arg-AMC2TFA; Enzyme Systems Products, #AMC-246)] 1:2000 in tryptase assay buffer [0.1 M Hepes (pH 7.5), 10% w/v Glycerol, 10 μM Heparin (Sigma H-4898) 0.01% NaN3] was added. After 30 minute incubation at room temperature, the optical density of the plates is measured at 355 nm/460 nm on a spectrophotometric plate reader. Table 1 provides the IC50 values.
Compounds of the disclosure were assayed for their ability to inhibit mast cell activation induced by FcγR cross-linking by measuring the activity of tryptase released upon degranulation. The IC50 values for the LD Tryptase assay are presented in Table 2, in which “0” is >100 μM; “A” is 1-100 μM; “B” is 0.5-1 μM; “C” is 0.1-0.5 μM; and “D” is less than 0.1 μM: […]

| IC50 [nM] | SMILES |
| --- | --- |
| < 100 | CN(C)C[C@@H]1CN(c2ccc(Nc3ncc(F)c(Nc4ccc5c(n4)NC(=O)CO5)n3)cc2)CCO1 (racemic) [Compound 121, rac-N4-(3,4-dihydro-3-oxo-2H-pyrido[3,2-b][1,4]oxazin-6-yl)-N2-[4-((2-dimethylaminomethyl)morpholino)phenyl]-5-fluoro-2,4-pyrimidinediamine] |
| < 100 | Cc1cc(Nc2ncc(F)c(Nc3ccc4c(n3)NC(=O)C(C)(C)O4)n2)cnc1N1CCOCC1 [Compound 13, N4-(2,2-dimethyl-3,4-dihydro-3-oxo-2H-pyrido[3,2-b][1,4]oxazin-6-yl)-5-fluoro-N2-[5-methyl-6-morpholinopyridin-3-yl]-2,4-pyrimidinediamine] |
| 100 to 500 | CCOC[C@@H]1CN(c2ccc(Nc3ncc(F)c(Nc4ccc5c(n4)NC(=O)CO5)n3)cn2)CCO1 [Compound 100, N4-(3,4-dihydro-3-oxo-2H-pyrido[3,2-b][1,4]oxazin-6-yl)-N2-[6-(((2S)-2-ethoxymethyl)morpholino)pyridin-3-yl]-5-fluoro-2,4-pyrimidinediamine] |
| < 100 | [2H]C1([2H])OC([2H])([2H])C([2H])([2H])N(c2ccc(Nc3ncc(F)c(Nc4ccc5c(n4)NC(=O)C(C)(C)O5)n3)cc2)C1([2H])[2H] [Compound 131, N4-(2,2-dimethyl-3,4-dihydro-3-oxo-2H-pyrido[3,2-b][1,4]oxazin-6-yl)-5-fluoro-N2-[4-(2,2,3,3,5,5,6,6-d8-morpholino)phenyl]-2,4-pyrimidinediamine] |
| 500 to 1000 | CCN(CC)C1CCN(c2ccc(Nc3ncc(F)c(Nc4ccc5c(n4)NC(=O)C(C)(C)O5)n3)cn2)C1 (stereo not drawn) [Compound 66, N4-(2,2-dimethyl-3,4-dihydro-3-oxo-2H-pyrido[3,2-b][1,4]oxazin-6-yl)-5-fluoro-N2-[6-(3-(diethylamino)pyrrolidin-1-yl)pyridin-3-yl]-2,4-pyrimidinediamine] |
| < 100 | COc1cc(Nc2ncc(F)c(Nc3ccc4c(n3)NC(=O)C(C)(C)O4)n2)ccc1N1CCOCC1 [Compound 27, N4-(2,2-dimethyl-3,4-dihydro-3-oxo-2H-pyrido[3,2-b][1,4]oxazin-6-yl)-5-fluoro-N2-[3-methoxy-4-morpholinophenyl]-2,4-pyrimidinediamine] |
| 100 to 500 | C[C@H]1COCCN1c1ccc(Nc2ncc(F)c(Nc3ccc4c(n3)NC(=O)C(C)(C)O4)n2)cc1 [Compound 120, N4-(2,2-dimethyl-3,4-dihydro-3-oxo-2H-pyrido[3,2-b][1,4]oxazin-6-yl)-5-fluoro-N2-[4-((3S)-3-methylmorpholino)phenyl]-2,4-pyrimidinediamine] |
| 100 to 500 | CCOCC1CN(c2ccc(Nc3ncc(F)c(Nc4ccc5c(n4)NC(=O)C(C)(C)O5)n3)cc2)CCO1 (stereo in doubt) [Compound 42, N4-(2,2-dimethyl-3,4-dihydro-3-oxo-2H-pyrido[3,2-b][1,4]oxazin-6-yl)-5-fluoro-N2-[4-(((2S)-2-ethoxymethyl)morpholino)phenyl]-2,4-pyrimidinediamine] |
| 100 to 500 | O=C1COc2ccc(Nc3nc(Nc4cnc(N5CCOCC5)c(F)c4)ncc3F)nc2N1 [Compound 16, N4-(3,4-dihydro-3-oxo-2H-pyrido[3,2-b][1,4]oxazin-6-yl)-5-fluoro-N2-[5-fluoro-6-morpholinopyridin-3-yl]-2,4-pyrimidinediamine] |
| 100 to 500 | O=C1Nc2nc(Nc3nc(Nc4ccc(N5CCOCC5)cc4)ncc3F)ccc2OC12CCC2 [Compound 123, 5-Fluoro-N2-(4-morpholinophenyl)-N4-(3′-oxo-3′,4′-dihydrospiro[cyclobutane-1,2′-pyrido[3,2-b][1,4]oxazine]-6-yl)-2,4-pyrimidinediamine] |
| < 100 | COc1cc(Nc2ncc(F)c(Nc3ccc4c(n3)NC(=O)CO4)n2)ccc1N1CCOCC1 [Compound 33, N4-(3,4-dihydro-3-oxo-2H-pyrido[3,2-b][1,4]oxazin-6-yl)-5-fluoro-N2-[3-methoxy-4-morpholinophenyl]-2,4-pyrimidinediamine] |
| 100 to 500 | C[C@@H]1CN(c2ccc(Nc3ncc(F)c(Nc4ccc5c(n4)NC(=O)CO5)n3)cc2)C[C@H](C)O1 [Compound 35, rac-Cis-N4-(3,4-dihydro-3-oxo-2H-pyrido[3,2-b][1,4]oxazin-6-yl)-5-fluoro-N2-[4-(2,6-dimethylmorpholino)phenyl]-2,4-pyrimidinediamine] |
| 100 to 500 | CCOCC1CN(c2ccc(Nc3ncc(F)c(Nc4ccc5c(n4)NC(=O)CO5)n3)cc2)CCO1 (stereo in doubt) [Compound 41, N4-(3,4-dihydro-3-oxo-2H-pyrido[3,2-b][1,4]oxazin-6-yl)-5-fluoro-N2-[4-(((2S)-2-ethoxymethyl)morpholino)phenyl]-2,4-pyrimidinediamine] |
| < 100 | C[C@H]1CN(c2ccc(Nc3ncc(F)c(Nc4ccc5c(n4)NC(=O)CO5)n3)cc2)CCO1 [Compound 80] |
| 100 to 500 | CC1(C)Oc2ccc(Nc3nc(Nc4ccc(N5CCC(C(N)=O)CC5)cc4)ncc3F)nc2NC1=O [Compound 150, N4-(2,2-dimethyl-3,4-dihydro-3-oxo-2H-pyrido[3,2-b][1,4]oxazin-6-yl)-5-fluoro-N2-[4-(4-(aminocarbonyl)piperidin-1-yl)phenyl]-2,4-pyrimidinediamine] |
| 100 to 500 | C[C@@H]1CN(c2ccc(Nc3ncc(F)c(Nc4ccc5c(n4)NC(=O)CO5)n3)cn2)C[C@H](C)O1 [Compound 95, rac-Cis-N4-(3,4-dihydro-3-oxo-2H-pyrido[3,2-b][1,4]oxazin-6-yl)-N2-[6-(2,6-dimethylmorpholino)pyridin-3-yl]-5-fluoro-2,4-pyrimidinediamine] |
| < 100 | CC1(C)Oc2ccc(Nc3nc(Nc4ccc(N5CCS(=O)(=O)CC5)cc4)ncc3F)nc2NC1=O [Compound 149, N4-(2,2-dimethyl-3,4-dihydro-3-oxo-2H-pyrido[3,2-b][1,4]oxazin-6-yl)-5-fluoro-N2-[4-(1,1-dioxidothiomorpholin-4-yl)phenyl]-2,4-pyrimidinediamine] |
| 100 to 500 | CO[C@@H]1CCN(c2ccc(Nc3ncc(F)c(Nc4ccc5c(n4)NC(=O)C(C)(C)O5)n3)cn2)C1 [Compound 65, N4-(2,2-dimethyl-3,4-dihydro-3-oxo-2H-pyrido[3,2-b][1,4]oxazin-6-yl)-5-fluoro-N2-[6-((3R)-3-methoxypyrrolidin-1-yl)pyridin-3-yl]-2,4-pyrimidinediamine] |

same assay, conditions: anti-IgG stimulation, activity of tryptase released upon degranulation

| IC50 [nM] | SMILES |
| --- | --- |
| 500 to 1000 | CC1(C)Oc2ccc(Nc3nc(Nc4ccc(N5CCOCC5)nc4)ncc3F)nc2NC1=O [Compound 139, N4-(2,2-dimethyl-3,4-dihydro-3-oxo-2H-pyrido[3,2-b][1,4]oxazin-6-yl)-5-fluoro-N2-[6-morpholinopyridin-3-yl]-2,4-pyrimidinediamine p-toluenesulfonic acid salt] |
| < 100 | CC1(C)Oc2ccc(Nc3nc(Nc4ccc(N5CCOCC5)nc4)ncc3F)nc2NC1=O [Compound 3, N4-(2,2-dimethyl-3,4-dihydro-3-oxo-2H-pyrido[3,2-b][1,4]oxazin-6-yl)-5-fluoro-N2-[6-morpholinopyridin-3-yl]-2,4-pyrimidinediamine] |

| SMILES | IC50 [nM] |
| --- | --- |
| CC1(C)Oc2ccc(Nc3nc(Nc4ccc(N5CCOCC5)nc4)ncc3F)nc2N(COP(=O)(O)O)C1=O [Compound 4, N4-(2,2-dimethyl-3,4-dihydro-4-[(dihydrogenphosphonoxy)methyl]-3-oxo-2H-pyrido[3,2-b][1,4]oxazin-6-yl)-5-fluoro-N2-(6-morpholinopyridin-3-yl)-2,4-pyrimidinediamine disodium salt] | 1000 to 100000 |
